Measured values as given in patent US20100168084A1, “Therapeutic compounds and related methods of use” (priority 2008, published 2010).
Where two headings read alike, the source gives them in different places.

Columns and labels:
[1] = tested on: HDAC; conditions: literature statements; cited from earlier work
[2] = tested on: sirtuin protein; experiment: FP assay (IC50 FP ASSAY / ED50 FP); assay type: biochemical; conditions: Table 4
[3] = biological target: T1, sirtuin protein (Homo sapiens, UniProt Q96EB6); experiment: MS assay (IC50 MS ASSAY / ED50 MS / FOLD ACTIVATION MS); assay type: biochemical; set-up: scale not given here
T1 sequence (Q96EB6 2-747 limits assumed): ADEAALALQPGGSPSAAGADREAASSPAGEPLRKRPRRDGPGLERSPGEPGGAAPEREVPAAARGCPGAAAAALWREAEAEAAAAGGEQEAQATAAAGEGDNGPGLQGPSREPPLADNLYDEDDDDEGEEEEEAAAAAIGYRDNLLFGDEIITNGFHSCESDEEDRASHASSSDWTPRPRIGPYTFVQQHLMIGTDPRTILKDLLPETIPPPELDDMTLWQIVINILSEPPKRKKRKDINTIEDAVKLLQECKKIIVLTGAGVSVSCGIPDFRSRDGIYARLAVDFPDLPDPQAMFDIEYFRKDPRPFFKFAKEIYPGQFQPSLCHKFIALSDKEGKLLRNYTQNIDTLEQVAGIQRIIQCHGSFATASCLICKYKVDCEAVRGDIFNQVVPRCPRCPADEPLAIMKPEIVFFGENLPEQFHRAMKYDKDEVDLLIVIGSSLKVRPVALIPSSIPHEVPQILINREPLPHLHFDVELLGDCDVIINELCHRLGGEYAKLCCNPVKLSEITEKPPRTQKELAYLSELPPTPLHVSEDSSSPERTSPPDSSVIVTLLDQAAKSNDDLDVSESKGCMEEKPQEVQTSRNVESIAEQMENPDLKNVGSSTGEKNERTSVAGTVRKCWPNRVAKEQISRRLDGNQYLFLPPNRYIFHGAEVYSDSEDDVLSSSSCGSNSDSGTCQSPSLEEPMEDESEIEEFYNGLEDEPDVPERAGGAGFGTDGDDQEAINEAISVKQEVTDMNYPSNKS

[4] = biological target: cytochrome oxidase (Complex IV) (Homo sapiens, UniProt P00395); conditions: cited from earlier work
[5] = topical; cited from earlier work
[6] = Table 4, class symbols A′, A, B, D, NA, legend not given
[7] = class symbols (A′, A, B, D, NA), no legend given
[8] = Table 4, class symbols, legend not given
[9] = MS assay, class symbols A′, A, B, D, NA, legend not given
[10] = MS assay, class symbols, key not given
[11] = Table 4, class symbols A′, A, B, C, NA, legend not given

ED50 MS ASSAY [3]	ED50 MS ASSAY ([3]; Table 4, class symbols)	ED50 MS ASSAY [3, 6]	ED50 MS ASSAY [3, 7]	ED50 MS ASSAY ([3]; Table 4)	Compound	further results
–	–	–	–	–	trichostatin A [TSA]	inhibition of HDAC [1]: potent inhibitor of mammalian HDAC
–	–	–	–	–	C/C=C1\NC(=O)[C@H]2CSSCC/C=C/[C@H](CC(=O)N[C@H](C(C)C)C(=O)N2)OC(=O)[C@H](C(C)C)NC1=O [Depsipeptide, depsipeptide]	inhibition of HDAC [1]: inhibit HDAC activity at micromolar concentrations
–	–	–	–	–	depudecin	inhibition of HDAC [1]: inhibit HDAC at micromolar concentrations
A′	A′	A′	A′	–	O=C1CN(Cc2csc3nc(-c4ccccc4NC(=O)c4cnc5ccccc5n4)cn23)CCN1 [Compound 677]	ED50 FP ASSAY [2]: A′
–	–	–	–	A′	COc1ccc(C(=O)Nc2cccc(-c3nc4cccnc4s3)c2)cc1 [Compound 216]	ED50 MS ASSAY ([3]; TABLE 4): A′; ED50 MS ASSAY [3, 8]: A′; ED50 MS ASSAY ([3]; class symbols, no key given): A′
–	–	A′	–	A′	COc1cc(C(=O)Nc2ccc(-c3nc4cnccc4o3)s2)cc(OC)c1OC [Compound 426]	ED50 MS ASSAY [3, 9]: A′
–	–	A′	–	A′	COc1ccc(C(=O)Nc2cccc(-c3nc4ccccc4[nH]3)n2)cc1OC [Compound 260]	ED50 MS ASSAY [3, 9]: A′
A′	A′	A′	A′	A′	COc1ccc(C(=O)Nc2ccc(-c3nc4ccncc4o3)s2)c(OC)c1 [Compound 561]	–
A′	–	–	–	A′	COc1ccc(-c2ccc(C(=O)Nc3ccccc3-c3cn4c(CN5CCNCC5)csc4n3)o2)cc1 [Compound 736]	ED50 MS ASSAY [3, 10]: A′; ED50 MS ASSAY ([3]; TABLE 4): A′; ED50 MS ASSAY [3, 11]: A′
–	–	A′	–	A′	CN(C)c1cccc(C(=O)Nc2ccccc2-c2cn3ccccc3n2)c1 [Compound 268]	ED50 MS ASSAY [3, 9]: A′
–	–	–	–	–	O=C(/C=C/c1cccc(C(=O)NO)c1)NO [CBHA, m-carboxy-cinnamic acid bishydroxamic acid]	inhibition of HDAC [1]: inhibit HDAC at micromolar concentration or lower
A′	A′	A′	A′	A′	O=C(Nc1ccccc1-c1cn2c(CN3CCCCC3)csc2n1)c1cnc2ccccc2n1 [Compound 618]	–
A′	A′	A′	A′	A′	O=C(Nc1ccccc1-c1cn2c(CN3CCOCC3)csc2n1)c1cnc2ccccc2n1 [Compound 617]	–
A′	A′	A′	A′	A′	O=C(Nc1ccccc1-c1cn2c(CCN3CCNCC3)csc2n1)c1cnc2ccccc2n1 [Compound 680]	–
–	–	–	–	–	[N]=O [Nitric oxide]	concentration that inhibits cytochrome oxidase (Complex IV) [4]: about 1 micromolar
A′	A′	A′	A′	A′	COc1ccc(C(=O)Nc2ccc(-c3nc4cnccc4s3)s2)c(OC)c1 [Compound 515]	–
–	–	–	–	A′	COc1ccc(C(=O)Nc2ccccc2-c2cn3ccsc3n2)cc1OC [Compound 203]	ED50 MS ASSAY ([3]; TABLE 4): A′; ED50 MS ASSAY [3, 8]: A′; ED50 MS ASSAY ([3]; class symbols, no key given): A′
–	–	–	–	A′	COc1cc(C(=O)Nc2ccccc2-c2cn3ccsc3n2)cc(OC)c1OC [Compound 204]	ED50 MS ASSAY ([3]; TABLE 4): A′; ED50 MS ASSAY [3, 8]: A′; ED50 MS ASSAY ([3]; class symbols, no key given): A′

ED50 MS ASSAY [3]	ED50 MS ASSAY ([3]; Table 4, class symbols)	ED50 MS ASSAY [3, 6]	ED50 MS ASSAY [3, 7]	ED50 MS ASSAY ([3]; Table 4)	Compound	further results
–	–	–	–	–	CC(C)(C)NC[C@H](O)COc1nsnc1N1CCOCC1 [timolol]	time for IOP to fall [5]: 30 min; time of peak effects on IOP [5]: 1 to 2 h
A′	A′	A′	A′	A′	COc1ccc(C(=O)Nc2ccccc2-c2nc3cccnc3[nH]2)cc1 [Compound 531]	–
–	–	A′	–	A′	COc1cc(OC)cc(C(=O)Nc2ccccc2-c2nc3ccncc3o2)c1 [Compound 456]	ED50 MS ASSAY [3, 9]: A′
A′	–	–	–	A′	O=C(Nc1ccccc1-c1cn2c(CN3CCNCC3)csc2n1)c1cccc(-c2cc[nH]n2)c1 [Compound 733]	ED50 MS ASSAY [3, 10]: A′; ED50 MS ASSAY ([3]; TABLE 4): A′; ED50 MS ASSAY [3, 11]: A′
–	–	A′	–	A′	COc1cc(OC)cc(C(=O)Nc2ccccc2-c2nc3cnccc3o2)c1 [Compound 404]	ED50 MS ASSAY [3, 9]: A′
A′	A′	A′	A′	A′	COc1cc(OC)cc(C(=O)Nc2ccc(-c3nc4ccncc4o3)s2)c1 [Compound 562]	–
–	–	–	–	A′	COc1ccc(C(=O)Nc2cccc(-c3cc4cccnc4o3)c2)c(OC)c1 [Compound 191]	ED50 MS ASSAY ([3]; TABLE 4): A′; ED50 MS ASSAY [3, 8]: A′; ED50 MS ASSAY ([3]; class symbols, no key given): A′
A′	–	A′	A′	A′	Cc1cc(C)cc(C(=O)Nc2ccccc2-c2nc3ncccc3o2)c1 [Compound 482]	–
A′	A′	A′	A′	A′	COc1ccc(C(=O)Nc2ccccc2-c2nc3cccnc3[nH]2)cc1OC [Compound 525]	–
–	–	A′	–	A′	COc1cc(C(=O)Nc2ccccc2-c2cn3ccccc3n2)cc(OC)c1OC [Compound 267]	ED50 MS ASSAY [3, 9]: A′
–	–	–	–	A′	COc1ccc(C(=O)Nc2cccc(-c3nc4ncccc4[nH]3)c2)c(OC)c1 [Compound 184]	ED50 MS ASSAY ([3]; TABLE 4): A′; ED50 MS ASSAY [3, 8]: A′; ED50 MS ASSAY ([3]; class symbols, no key given): A′
A′	–	–	–	A′	O=C(Nc1ccccc1-c1cn2c(CN3CCSCC3)csc2n1)c1cnc2ccccc2n1 [Compound 742]	ED50 MS ASSAY [3, 10]: A′; ED50 MS ASSAY ([3]; TABLE 4): A′; ED50 MS ASSAY [3, 11]: A′
A′	A′	A′	A′	A′	COc1cc(C(=O)Nc2ccccc2-c2nc3ccccc3[nH]2)ccc1CN1CCOCC1 [Compound 503]	–
A′	A′	A′	A′	A′	O=C(Nc1ccccc1-c1cn2c(CN3CCNCC3)csc2n1)c1c[nH]c2ccccc12 [Compound 510]	–
A′	A′	A′	A′	A′	COc1cccc(C(=O)Nc2ccccc2-c2nc3cccnc3[nH]2)c1 [Compound 532]	–
A′	A′	A′	A′	A′	O=C(Nc1ccccc1-c1nc2ccccc2[nH]1)c1cnc2ccccc2n1 [Compound 508]	–
A′	–	–	–	A′	Cc1ccc(C(=O)Nc2ccccc2-c2nc3ccc(CN4CCNCC4)nc3s2)cc1C [Compound 727]	ED50 MS ASSAY [3, 10]: A′; ED50 MS ASSAY ([3]; TABLE 4): A′; ED50 MS ASSAY [3, 11]: A′
A′	A′	A′	A′	A′	O=C(Nc1ccccc1-c1nc2cccnc2[nH]1)c1ccc(N2CCCCC2)cc1 [Compound 527]	–
